Results reported in patent US11672775B2, “Treprostinil prodrugs” (United Therapeutics Corporation, priority 2016, dated 2023).
One block for each compound: values may come before it.

How the values were obtained:
[1] = In vitro metabolic stability in liver microsomes; settings: Rat
in vitro = settings: monkey, liver microsomes, pH 7.4
[2] = In vitro metabolic stability in liver microsomes; settings: Monkey; +NADPH
Sprague Dawley rats [3] = experiment: Clinical observations following subcutaneous injection (Example 12); type: in vivo, Sprague Dawley rat; settings: 3, 10, or 30 mg/kg SC; some animals; approximately 4 hours
Protocol: (§1) Clinical observations were performed at approximately 6 hours prior to dosing, at the completion of dosing and at approximately 4 hours postdosing.

Sprague Dawley rats [4] = experiment: Cardiovascular assessment by radiotelemetry following subcutaneous injection (Example 12); type: in vivo, Sprague Dawley rat
Protocol: as §1

Sprague Dawley rats [5] = experiment: Rat intraplantar injection model, thermal pain sensitivity (Example 10); type: in vivo, Sprague Dawley rat
Protocol: (§2) Male Sprague Dawley rats (n=56) were allocated into 7 groups of 8 animals per group. […] Each group was compared to the phosphate buffer (50-mM phosphate buffer with 50-mM sodium chloride at pH=7.4) treated group, which served as the control (Group 1).
(§3) Animals were administered 0.1 mL of test material by subcutaneous injection into the paw pad (Intraplantar injection) at time zero. Then, the animals were subsequently evaluated for their response to mechanical (von Frey filaments) and thermal stimuli, 15 and 90 minutes post-injection. The von Frey test was conducted prior to the thermal test, which followed immediately within minutes for each animal. In addition, clinical observation scoring of the animal's reaction to injection was conducted.
(§4) The sensitivity of animals to a thermal pain stimulus was assessed immediately following the von Frey test. The time until withdrawal of the right-injected leg from a heat source was measured, and the lower (faster) the time of response represents a greater sensitivity to the stimulus. The test was performed 15 and 90 minutes post-test item injection.

Sprague Dawley rats [6] = experiment: Rat intraplantar injection model, thermal pain sensitivity (Example 9); type: in vivo, Sprague Dawley rat; settings: 100 μg/mL; both time points
Protocol: (§5) Male Sprague Dawley rats (n=112) were allocated into 14 groups of 8/group. The study was run in 2 cycles, on consecutive days, 7 groups per cycle. Each cycle was composed of a Saline group, PBS group, which served as the control, and also treprostinil at a dose of 100 μg/mL or 1 μg/mL.
as §3, with “Animals” for “Then, the animals”, “conducted. FIG. 16 schematically illustrates the study design.” for “conducted.”
as §4, with “post-Test Item” for “post-test item”

Sprague Dawley rats [7] = experiment: Rat intraplantar injection model, clinical observation score (Example 9); type: in vivo, Sprague Dawley rat
Protocol: as §5
as §3, with “Animals” for “Then, the animals”, “conducted. FIG. 16 schematically illustrates the study design.” for “conducted.”
A Clinical observation score was assigned by assessing for redness, swelling and paw placement.

Sprague Dawley rats [8] = experiment: Rat intraplantar injection model, von Frey test (Example 10); type: in vivo, Sprague Dawley rat; settings: 1 μg/mL or 100 μg/mL; 15 and 90 minutes post-injection
Protocol: as §2, §3
Mechanical pain sensitivity was tested using the von Frey test, which measures the withdrawal force threshold of the animals. The lower the force applied represents a greater sensitivity to the stimulus. The von Frey test was performed 15 and 90 minutes post-test item injection.

Sprague Dawley rats [9] = experiment: Rat intraplantar injection model, von Frey test (Example 9); type: in vivo, Sprague Dawley rat; settings: for von Frey withdrawal force threshold vs PBS-treated group: both time points post-injection
Protocol: as §5
as §3, with “Animals” for “Then, the animals”, “conducted. FIG. 16 schematically illustrates the study design.” for “conducted.”
Mechanical pain sensitivity was tested using the von Frey test, which measures the withdrawal force threshold of the animals. The lower the force applied represents a greater sensitivity to the stimulus. The von Frey test was performed 15 and 90 minutes post-Test Item injection.

Sprague Dawley rats [10] = experiment: Rat intraplantar injection model, clinical observation score (Example 10); type: in vivo, Sprague Dawley rat; settings: 1 μg/mL; both time-points; compared with similar dose of treprostinil
Protocol: as §2, §3
A clinical observation score was assigned by assessing for redness, swelling and paw placement.

[11] = only the 1 μg/mL dose, both time points

Half-life ([1]; +NADPH): 0.0982 h
Half-life ([1]; −NADPH): >6 h
half-life at 500 nM (in vitro): > 6 h
Half-life [2]: 2.00 min
SMILES: CCOc1ccc2ccc(=O)oc2c1 [Prodrug 7-EC, 7-ethoxycoumarin]

clinical score (Sprague Dawley rats [7]; 100 μg/mL (cycle 1), 15 min): non-zero
clinical score vs PBS group (Sprague Dawley rats [7]; 100 μg/mL (cycle 1), 90 minutes post-injection): non-zero
clinical score vs similar dose of treprostinil (Sprague Dawley rats [7]; [11]): reduced clinical score
von Frey withdrawal force threshold vs phosphate buffer group (Sprague Dawley rats [8]): reduced withdrawal force threshold
von Frey withdrawal force threshold vs PBS-treated group (Sprague Dawley rats [9]; 1 μg/mL): no statistically significant difference
sensitivity to mechanical stimulation vs similar dose of treprostinil (Sprague Dawley rats [9]; [11]): reduced sensitivity
clinical score (Sprague Dawley rats [10]): lower values of clinical score
SMILES: CCCCC[C@H](O)CC[C@@H]1[C@H]2Cc3cccc(OCC(=O)NCC(=O)O)c3C[C@H]2C[C@H]1O [Prodrug VII]
clinical observations (Sprague Dawley rats [3]): flushed body and/or extremities, piloerection, hypoactivity, reddened forelimb(s) and/or hindlimb(s), wet yellow material on the urogenital area and ventral trunk, and dried red material around nose
diastolic blood pressure change (Sprague Dawley rats [4]; 0.1 mg/kg SC (for Prodrug VII)): No meaningful change
mean blood pressure change (Sprague Dawley rats [4]; 0.1 mg/kg SC (for Prodrug VII)): No meaningful change
systolic blood pressure change (Sprague Dawley rats [4]; 0.1 mg/kg SC (for Prodrug VII)): No meaningful change
body temperature change (Sprague Dawley rats [4]; 1 mg/kg SC): No significant changes
diastolic blood pressure change (Sprague Dawley rats [4]; 3 mg/kg SC): Marginally lower
diastolic blood pressure lowering persisted through (Sprague Dawley rats [4]; 3 mg/kg SC): 80 min
diastolic blood pressure, time of nadir (Sprague Dawley rats [4]; 3 mg/kg SC): 50 min
hypothermic response persisted through (Sprague Dawley rats [4]; 3 mg/kg SC): 4 h
mean blood pressure change (Sprague Dawley rats [4]; 3 mg/kg SC): Marginally lower
mean blood pressure, time of nadir (Sprague Dawley rats [4]; 3 mg/kg SC): 50 min
systolic blood pressure change (Sprague Dawley rats [4]; 3 mg/kg SC): Marginally lower
systolic blood pressure, time of nadir (Sprague Dawley rats [4]; 3 mg/kg SC): 50 min
diastolic hypotension persisting through (Sprague Dawley rats [4]; 10 mg/kg SC): approximately 4 hours
mean blood pressure hypotension persisting through (Sprague Dawley rats [4]; 10 mg/kg SC): approximately 4 hours
pulse pressure change (Sprague Dawley rats [4]; 10 mg/kg SC): Marginally higher
systolic hypotension persisting through (Sprague Dawley rats [4]; 10 mg/kg SC): approximately 4 hours
systolic hypotension persisting through (Sprague Dawley rats [4]; 30 mg/kg SC): ~6 h
time without recovery of body temperature (Sprague Dawley rats [4]; 30 mg/kg SC): > 24 h
body temperature change (Sprague Dawley rats [4]; 3, 10, and 30 mg/kg SC): Significantly lower
diastolic blood pressure change (Sprague Dawley rats [4]; 10 and 30 mg/kg SC): Significantly lower
diastolic blood pressure, earliest time point of lowering (Sprague Dawley rats [4]; 10 and 30 mg/kg SC): 20 min
diastolic blood pressure, time of nadir (Sprague Dawley rats [4]; 10 and 30 mg/kg SC): 40 min
mean blood pressure change (Sprague Dawley rats [4]; 10 and 30 mg/kg SC): Significantly lower
mean blood pressure, time of nadir (Sprague Dawley rats [4]; 10 and 30 mg/kg SC): 40 min
systolic blood pressure change (Sprague Dawley rats [4]; 10 and 30 mg/kg SC): Significantly lower
systolic blood pressure, earliest time point of lowering (Sprague Dawley rats [4]; 10 and 30 mg/kg SC): 20 min
systolic blood pressure, time of nadir (Sprague Dawley rats [4]; 10 and 30 mg/kg SC): 40 min
dose resulting in significantly lower body temperature (Sprague Dawley rats [4]; single SC injection): ≥ 3 mg/kg
dose resulting in significantly lower systolic, diastolic, mean arterial blood pressure (Sprague Dawley rats [4]; single SC injection): ≥ 3 mg/kg
heart rate change (Sprague Dawley rats [4]; single SC injection, all doses): Higher heart rates
sensitivity to thermal stimulation (Sprague Dawley rats [5]; 1 μg/mL, both time-points, compared with similar dose of treprostinil): reduced sensitivity to thermal stimulation
thermal paw withdrawal time vs phosphate buffer treated group (Sprague Dawley rats [5]; 100 μg/mL, 15 minutes post-administration): statistically significantly faster paw withdrawal time
thermal paw withdrawal time vs PBS group (Sprague Dawley rats [6]): trend toward reduction in the time of response
clinical score vs PBS group (Sprague Dawley rats [7]; 100 μg/mL, both time points): statistically significant increase in the clinical score
von Frey withdrawal force threshold vs PBS-treated group (Sprague Dawley rats [9]; 100 μg/mL): statistically significant increased sensitivity
